# pIC50: −log10 of the molar value.
# Key:
# Assay in all cases: cells
# Assay type in all cases: functional, cell-based
# Settings in all cases: Homo sapiens
# COLO-792 = system: COLO-792
# Description: SANGER: Inhibition of human COLO-792 cell growth in a cell viability assay.
# COR-L105 = system: COR-L105;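 also: cell growth inhibition determined with a viability assay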
# Description: SANGER: Inhibition of human COR-L105 cell growth in a cell viability assay.
# DBTRG-05MG = system: DBTRG-05MG;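 also: cell viability assay measuring growth inhibition of human DBTRG-05MG cells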
# Description: SANGER: Inhibition of human DBTRG-05MG cell growth in a cell viability assay.
# DMS-153 = system: DMS-153
# Description: SANGER: Inhibition of human DMS-153 cell growth in a cell viability assay.
# Daudi = system: Daudi;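 also: growth inhibition of Daudi cells, read out by a viability assay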
# Description: SANGER: Inhibition of human Daudi cell growth in a cell viability assay.
# EFO-21 = system: EFO-21;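 also: growth inhibition of EFO-21 cells measured with a viability assay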
# Description: SANGER: Inhibition of human EFO-21 cell growth in a cell viability assay.
# EFO-27 = system: EFO-27;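 also: growth inhibition of EFO-27 cells, read out with a cell viability assay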
# Description: SANGER: Inhibition of human EFO-27 cell growth in a cell viability assay.
# EHEB = system: EHEB;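 also: growth inhibition of human EHEB cells, read out with a cell viability assay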
# Description: SANGER: Inhibition of human EHEB cell growth in a cell viability assay.
# H4 = system: H4
# Description: SANGER: Inhibition of human H4 cell growth in a cell viability assay.
# HCC1419 = system: HCC1419;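 also: growth inhibition of human HCC1419 cells, read out as cell viability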
# Description: SANGER: Inhibition of human HCC1419 cell growth in a cell viability assay.
# HCC38 = system: HCC38;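 also: cell viability assay on the human HCC38 cell line, with IC50 marking the concentration that inhibits cell growth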
# Description: SANGER: Inhibition of human HCC38 cell growth in a cell viability assay.
# HCT-116 = system: HCT-116
# Description: SANGER: Inhibition of human HCT-116 cell growth in a cell viability assay.
# HLE = system: HLE;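 also: growth inhibition of human HLE cells, read out by a cell viability assay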
# Description: SANGER: Inhibition of human HLE cell growth in a cell viability assay.
# HT-1080 = system: HT-1080
# Description: SANGER: Inhibition of human HT-1080 cell growth in a cell viability assay.
# HT-3 = system: HT-3;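 also: growth inhibition measured with a cell viability readout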
# Description: SANGER: Inhibition of human HT-3 cell growth in a cell viability assay.
# Hs-578T = system: Hs-578T
# Description: SANGER: Inhibition of human Hs-578-T cell growth in a cell viability assay.
# J82 = system: J82;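 also: growth inhibition of J82 cells, read out with a cell viability assay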
# Description: SANGER: Inhibition of human J82 cell growth in a cell viability assay.
# KMS-12-PE = system: KMS-12-PE;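 also: growth inhibition of human KMS-12-PE cells, measured with a cell viability assay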
# Description: SANGER: Inhibition of human KMS-12-PE cell growth in a cell viability assay.
# KU-19-19 = system: KU-19-19
# Description: SANGER: Inhibition of human KU-19-19 cell growth in a cell viability assay.
# KYSE-510 = system: KYSE-510;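 also: cell viability readout used to measure how strongly growth of the cell line is suppressed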
# Description: SANGER: Inhibition of human KYSE-510 cell growth in a cell viability assay.
# KYSE-520 cell line = system: KYSE-520 cell line;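 also: growth inhibition of human KYSE-520 cells, read out with a viability assay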
# Description: SANGER: Inhibition of human KYSE-520 cell growth in a cell viability assay.
# KYSE-70 cell line = system: KYSE-70 cell line;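 also: cell viability assay read-out, with IC50 expressing suppression of KYSE-70 cell growth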
# Description: SANGER: Inhibition of human KYSE-70 cell growth in a cell viability assay.
# LB996-RCC = system: LB996-RCC
# Description: SANGER: Inhibition of human LB996-RCC cell growth in a cell viability assay.
# LK-2 = system: LK-2;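 also: growth inhibition of LK-2 cells, read out with a viability assay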
# Description: SANGER: Inhibition of human LK-2 cell growth in a cell viability assay.
# LU-99A = system: LU-99A;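 also: growth inhibition of LU-99A cells, read out with a cell viability assay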
# Description: SANGER: Inhibition of human LU-99A cell growth in a cell viability assay.
# MDA-MB-175-VII = system: MDA-MB-175-VII
# MG-63 = system: MG-63;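 also: growth inhibition of human MG-63 cells, read out with a cell viability assay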
# Description: SANGER: Inhibition of human MG-63 cell growth in a cell viability assay.
# NALM-6 = system: NALM-6;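 also: growth inhibition of NALM-6 cells, read out with a cell viability assay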
# Description: SANGER: Inhibition of human NALM-6 cell growth in a cell viability assay.
# NCI-H1436 = system: NCI-H1436;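 also: growth suppression of human NCI-H1436 cells, determined with a cell viability readout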
# Description: SANGER: Inhibition of human NCI-H1436 cell growth in a cell viability assay.
# NCI-H1651 = system: NCI-H1651;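 also: Read-out is a cell viability assay, with IC50 expressing inhibition of NCI-H1651 cell growth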
# Description: SANGER: Inhibition of human NCI-H1651 cell growth in a cell viability assay.
# NCI-H1792 = system: NCI-H1792;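 also: growth inhibition of human NCI-H1792 cells, read out as cell viability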
# Description: SANGER: Inhibition of human NCI-H1792 cell growth in a cell viability assay.
# NCI-H2122 = system: NCI-H2122;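 also: growth inhibition of the cells, read out with a cell viability assay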
# Description: SANGER: Inhibition of human NCI-H2122 cell growth in a cell viability assay.
# NCI-H2196 = system: NCI-H2196;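 also: cell viability assay used as the readout of growth inhibition in NCI-H2196 cells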
# Description: SANGER: Inhibition of human NCI-H2196 cell growth in a cell viability assay.
# NCI-H441 = system: NCI-H441;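 also: growth inhibition of NCI-H441 cells, read out with a cell viability assay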
# Description: SANGER: Inhibition of human NCI-H441 cell growth in a cell viability assay.
# NCI-H596 = system: NCI-H596;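 also: growth inhibition of NCI-H596 cells, read out with a cell viability assay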
# Description: SANGER: Inhibition of human NCI-H596 cell growth in a cell viability assay.
# NCI-H748 = system: NCI-H748;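 also: growth inhibition of NCI-H748 cells, measured by a cell viability assay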
# Description: SANGER: Inhibition of human NCI-H748 cell growth in a cell viability assay.
# OAW-42 = system: OAW-42;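 also: growth inhibition of OAW-42 cells, read out with a cell viability assay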
# Description: SANGER: Inhibition of human OAW-42 cell growth in a cell viability assay.
# P31-FUJ = system: P31-FUJ;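 also: growth inhibition of P31-FUJ cells, read out with a viability assay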
# Description: SANGER: Inhibition of human P31-FUJ cell growth in a cell viability assay.
# PC-14 = system: PC-14;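 also: cell viability assay measuring inhibition of PC-14 cell growth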
# Description: SANGER: Inhibition of human PC-14 cell growth in a cell viability assay.
# REH = system: REH;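 also: growth inhibition of REH cells determined with a cell viability read-out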
# Description: SANGER: Inhibition of human REH cell growth in a cell viability assay.
# RERF-LC-MS = system: RERF-LC-MS;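 also: growth inhibition of human RERF-LC-MS cells, read out by a cell viability assay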
# Description: SANGER: Inhibition of human RERF-LC-MS cell growth in a cell viability assay.
# RT-112 = system: RT-112
# Description: SANGER: Inhibition of human RT-112 cell growth in a cell viability assay.
# SCC-9 = system: SCC-9;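 also: Read-out is a cell viability assay, with values giving inhibition of cell growth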
# Description: SANGER: Inhibition of human SCC-9 cell growth in a cell viability assay.
# SF-295 = system: SF-295;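 also: growth inhibition of SF-295 cells, read out with a cell viability assay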
# Description: SANGER: Inhibition of human SF295 cell growth in a cell viability assay.
# SK-MEL-24 = system: SK-MEL-24;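 also: growth inhibition read out by a cell viability assay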
# Description: SANGER: Inhibition of human SK-MEL-24 cell growth in a cell viability assay.
# SK-MM-2 = system: SK-MM-2;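 also: growth inhibition of human SK-MM-2 cells, read out with a cell viability assay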
# Description: SANGER: Inhibition of human SK-MM-2 cell growth in a cell viability assay.
# SNU-387 = system: SNU-387
# Description: SANGER: Inhibition of human SNU-387 cell growth in a cell viability assay.
# SUP-T1 = system: SUP-T1;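 also: growth inhibition of human SUP-T1 cells, read out as cell viability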
# Description: SANGER: Inhibition of human SUP-T1 cell growth in a cell viability assay.
# SW1783 = system: SW1783;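 also: cell growth inhibition measured with a viability assay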
# Description: SANGER: Inhibition of human SW1783 cell growth in a cell viability assay.
# SW948 = system: SW948;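 also: growth inhibition of SW948 cells, read out with a cell viability assay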
# Description: SANGER: Inhibition of human SW948 cell growth in a cell viability assay.
# SiHa = system: SiHa;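 also: Viability-based readout of growth inhibition in SiHa cells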
# Description: SANGER: Inhibition of human SiHa cell growth in a cell viability assay.
# T84 = system: T84;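 also: growth inhibition measured with a cell viability readout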
# Description: SANGER: Inhibition of human T84 cell growth in a cell viability assay.
# 639-V = system: 639-V;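 also: growth inhibition of 639-V cells, read out with a cell viability assay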
# Description: SANGER: Inhibition of human 639-V cell growth in a cell viability assay.
# 8305C = system: 8305C
# Description: SANGER: Inhibition of human 8305C cell growth in a cell viability assay.
# A-431 = system: A-431;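 also: growth inhibition of A-431 cells, determined with a cell viability read-out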
# Description: SANGER: Inhibition of human A431 cell growth in a cell viability assay.
# AU565 = system: AU565;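 also: cell viability assay measuring growth inhibition of human AU565 cells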
# Description: SANGER: Inhibition of human AU565 cell growth in a cell viability assay.
# BFTC-905 = system: BFTC-905
# Description: SANGER: Inhibition of human BFTC-905 cell growth in a cell viability assay.
# BL-41 = system: BL-41;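 also: growth inhibition of human BL-41 cells, read out with a cell viability assay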
# Description: SANGER: Inhibition of human BL-41 cell growth in a cell viability assay.
# CA46 = system: CA46;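 also: growth inhibition of human CA46 cells, read out by a cell viability assay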
# Description: SANGER: Inhibition of human CA46 cell growth in a cell viability assay.
# U-698-M = system: U-698-M
# Description: SANGER: Inhibition of human U-698-M cell growth in a cell viability assay.
# U-251 = system: U-251;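 also: growth inhibition of human U-251 cells, read out through a cell viability assay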
# Description: SANGER: Inhibition of human U251 cell growth in a cell viability assay.
# UACC-893 = system: UACC-893
# Description: SANGER: Inhibition of human UACC-893 cell growth in a cell viability assay.
smiles,measurement,setting,value
N#C/C(=C1/Nc2ccccc2S1)c1ccnc(NCCc2cccnc2)n1,pIC50,COLO-792,< 5.10
same,pIC50,COR-L105,5.75
same,pIC50,DBTRG-05MG,< 5.10
same,pIC50,DMS-153,< 5.10
same,pIC50,Daudi,5.18
same,pIC50,EFO-21,< 5.10
same,pIC50,EFO-27,< 5.10
same,pIC50,EHEB,< 5.10
same,pIC50,H4,< 5.10
same,pIC50,HCC1419,< 5.10
same,pIC50,HCC38,5.28
same,pIC50,HCT-116,< 5.10
same,pIC50,HLE,5.46
same,pIC50,HT-1080,< 5.10
same,pIC50,HT-3,< 5.10
same,pIC50,Hs-578T,< 5.10
same,pIC50,J82,5.36
same,pIC50,KMS-12-PE,< 5.10
same,pIC50,KU-19-19,< 5.10
same,pIC50,KYSE-510,< 5.10
same,pIC50,KYSE-520 cell line,< 5.10
same,pIC50,KYSE-70 cell line,5.39
same,pIC50,LB996-RCC,5.54
same,pIC50,LK-2,5.18
same,pIC50,LU-99A,< 5.10
same,pIC50,MDA-MB-175-VII,< 5.10
same,pIC50,MG-63,5.48
same,pIC50,NALM-6,5.35
same,pIC50,NCI-H1436,< 5.10
same,pIC50,NCI-H1651,< 5.10
same,pIC50,NCI-H1792,< 5.10
same,pIC50,NCI-H2122,6.17
same,pIC50,NCI-H2196,< 5.10
same,pIC50,NCI-H441,5.26
same,pIC50,NCI-H596,< 5.10
same,pIC50,NCI-H748,< 5.10
same,pIC50,OAW-42,5.11
same,pIC50,P31-FUJ,< 5.10
same,pIC50,PC-14,5.44
same,pIC50,REH,< 5.10
same,pIC50,RERF-LC-MS,< 5.10
same,pIC50,RT-112,< 5.10
same,pIC50,SCC-9,< 5.10
same,pIC50,SF-295,5.52
same,pIC50,SK-MEL-24,< 5.10
same,pIC50,SK-MM-2,< 5.10
same,pIC50,SNU-387,5.42
same,pIC50,SUP-T1,< 5.10
same,pIC50,SW1783,5.21
same,pIC50,SW948,< 5.10
same,pIC50,SiHa,< 5.10
same,pIC50,T84,5.41
same,pIC50,639-V,5.32
same,pIC50,8305C,< 5.10
same,pIC50,A-431,< 5.10
same,pIC50,AU565,5.59
same,pIC50,BFTC-905,5.47
same,pIC50,BL-41,5.12
same,pIC50,CA46,5.26
same,pIC50,U-698-M,5.53
same,pIC50,U-251,< 5.10
same,pIC50,UACC-893,< 5.10
